{"source": "ChEMBL document CHEMBL4808180", "about": "“Identification of 2,2-Dimethylbutanoic Acid (HST5040), a Clinical Development Candidate for the Treatment of Propionic Acidemia and Methylmalonic Acidemia” (J Med Chem, 2021)", "key": {"[1]": {"assay": "Drug metabolism in Sprague-Dawley rat urine assessed as HST5040-glucuronide metabolite formation at 10 mg/kg administered as single dose by LC/MS analysis", "format": "ADME, organism-based", "conditions": "in vivo; call rule not given here"}, "[2]": {"assay": "AUC (0 to infinity) in CD1 mouse at 30 mg/kg, iv", "format": "ADME, organism-based", "set-up": "time infinity, route intravenous, dose 30 mg/kg", "conditions": "in vivo"}, "[3]": {"assay": "Drug metabolism in Gottingen minipig plasma assessed as HST5040-glucuronide metabolite formation at 10 mg/kg administered as single dose by LC/MS analysis", "format": "ADME, organism-based, Sus scrofa domesticus", "conditions": "pig, in vivo"}, "[4]": {"assay": "Drug metabolism in rat hepatocytes assessed as beta-oxidation by measuring phase1 metabolite formation at 50 uM measured after 4 hrs", "format": "ADME, cell-based, Hepatocyte"}, "[5]": {"assay": "Drug metabolism in mini-pig hepatocytes assessed as formation of 2,2-dimethylbutanoic acid-CoA incubated for 1 hrs by MS/MS analysis", "format": "ADME, cell-based, Sus scrofa domesticus", "conditions": "Sus scrofa, Hepatocyte"}, "[6]": {"assay": "Drug metabolism in Sprague-Dawley rat plasma assessed as HST5040-glycine metabolite formation at 10 mg/kg administered as single dose using radiolabeled compound by LC/MS analysis", "format": "ADME, organism-based", "conditions": "in vivo"}, "[7]": {"assay": "Drug metabolism in mouse hepatocytes assessed as formation of 2,2-dimethylbutanoic acid-CoA incubated for 1 hrs by MS/MS analysis", "format": "ADME, cell-based", "conditions": "Hepatocyte"}, "[8]": {"assay": "Tmax in CD1 mouse at 30 mg/kg, po", "format": "ADME, organism-based", "conditions": "in vivo"}, "[9]": {"assay": "Half life in CD1 mouse at 100 mg/kg, po", "format": "ADME, organism-based", "conditions": "in vivo"}, "[10]": {"assay": "Volume of distribution of CD1 mouse at 30 mg/kg, iv", "format": "ADME, organism-based", "conditions": "in vivo"}, "[11]": {"assay": "Drug metabolism in Gottingen minipig urine assessed as HST5040-carnitine metabolite formation at 10 mg/kg administered as single dose by LC/MS analysis", "format": "ADME, organism-based, Sus scrofa domesticus", "conditions": "pig, in vivo"}, "[12]": {"assay": "Protein binding in human plasma at 40 uM incubated for 4 hrs by equilibrium dialysis", "format": "ADME, cell-free"}, "[13]": {"assay": "Clearance in Sprague-Dawley rat at 10 mg/kg, iv", "format": "ADME, organism-based", "conditions": "in vivo"}, "[14]": {"assay": "Half life in Sprague-Dawley rat at 10 mg/kg, po", "format": "ADME, organism-based", "conditions": "in vivo"}, "[15]": {"assay": "Cmax in Sprague-Dawley rat at 10 mg/kg, po", "format": "ADME, organism-based", "set-up": "route oral, dose 10 mg/kg", "conditions": "in vivo"}, "[16]": {"assay": "AUC (0 to infinity) in Sprague-Dawley rat at 10 mg/kg, iv", "format": "ADME, organism-based", "set-up": "route intravenous, time infinity, dose 10 mg/kg", "conditions": "in vivo"}, "[17]": {"assay": "Reduction of acetyl-CoA in human hepatocytes derived from propionic acidemia patient at 30 uM pretreated for 30 mins followed by 13C-isoleucine addition and measured after 1 hr by MS/MS analysis relative to control", "format": "functional, Hepatocyte", "set-up": "scale not given: the % may be the effect or the level left", "conditions": "time 90 min, 1.5 h"}, "[18]": {"assay": "Reduction of CoASH in human hepatocytes derived from methylmalonic acidemia patient pretreated for 30 mins followed by 13C-isoleucine addition and measured after 1 hr by MS/MS analysis", "format": "functional, cell-based", "conditions": "hepatocyte"}, "[19]": {"assay": "Reduction of acetyl carnitine in human hepatocytes derived from propionic acidemia patient pretreated for 30 mins followed by 13C-isoleucine addition and measured after 1 hr by MS/MS analysis", "format": "functional, cell-based", "conditions": "hepatocyte"}, "[20]": {"assay": "Reduction of 2-Methylcitric acid in human hepatocytes derived from methylmalonic acidemia patient at 30 uM pretreated for 30 mins followed by 13C-isoleucine addition and measured after 1 hr by MS/MS analysis relative to control", "format": "functional, Hepatocyte", "set-up": "scale not given: the % may be the effect or the level left", "conditions": "time 90 min, 1.5 h"}, "[21]": {"assay": "Protein binding in Gottingen minipig plasma at 40 uM incubated for 4 hrs by equilibrium dialysis", "format": "ADME, cell-free, Sus scrofa domesticus", "conditions": "pig, read-out: PPB (converted)"}, "[22]": {"assay": "Tmax in Sprague-Dawley rat at 200 mg/kg, po", "format": "ADME, organism-based", "conditions": "in vivo"}, "[23]": {"assay": "Drug metabolism in Gottingen minipig urine assessed as HST5040-glucuronide metabolite formation at 10 mg/kg administered as single dose by LC/MS analysis", "format": "ADME, organism-based, Sus scrofa domesticus", "conditions": "pig, in vivo"}, "[24]": {"assay": "Ratio of drug level in liver to plasma in Sprague-Dawley rat at 10 mg/kg, po measured at 1 hr post dose", "format": "ADME, organism-based", "conditions": "liver (relative to plasma)"}, "[25]": {"assay": "Reduction of CoASH in human hepatocytes derived from propionic acidemia patient pretreated for 30 mins followed by 13C-isoleucine addition and measured after 1 hr by MS/MS analysis", "format": "functional, cell-based", "conditions": "hepatocyte"}, "[26]": {"assay": "Reduction of 2-Methylcitric acid in human hepatocytes derived from propionic acidemia patient at 30 uM pretreated for 30 mins followed by 13C-isoleucine addition and measured after 1 hr by MS/MS analysis relative to control", "format": "functional, Hepatocyte", "set-up": "scale not given: the % may be the effect or the level left", "conditions": "time 90 min, 1.5 h"}, "[27]": {"assay": "Reduction of acetyl-CoA in human hepatocytes pretreated for 30 mins followed by 13C-isoleucine addition and measured after 1 hr by MS/MS analysis", "format": "functional, Hepatocyte", "set-up": "scale not given: the % may be the effect or the level left", "conditions": "dose 30 µM, 0.5 h"}, "[28]": {"assay": "Stability in human hepatocytes assessed as unchanged compound at 50 uM measured after 4 hrs", "format": "ADME, cell-based, Hepatocyte", "conditions": "read-out: Stabilty"}, "[29]": {"assay": "Reduction of methylmalonyl-CoA in human hepatocytes derived from methylmalonic acidemia pretreated for 30 mins followed by 13C-isoleucine addition and measured after 1 hr by MS/MS analysis", "format": "functional, cell-based", "conditions": "hepatocyte"}, "[30]": {"assay": "Solubility in pH 7-buffered water", "format": "physicochemical"}, "[31]": {"assay": "AUC (0 to infinity) in CD1 mouse at 300 mg/kg, iv", "format": "ADME, organism-based", "set-up": "route intravenous, time infinity, dose 300 mg/kg", "conditions": "in vivo"}, "[32]": {"assay": "Half life in CD1 mouse at 30 mg/kg, po", "format": "ADME, organism-based", "conditions": "in vivo"}, "[33]": {"assay": "AUC (0 to infinity) in Sprague-Dawley rat at 50 mg/kg, po", "format": "ADME, organism-based", "set-up": "time infinity, route oral, dose 50 mg/kg", "conditions": "in vivo"}, "[34]": {"target": "T1, Multidrug and toxin extrusion protein 2 (Homo sapiens, UniProt Q86VL8)", "T1 sequence (Q86VL8 whole entry)": "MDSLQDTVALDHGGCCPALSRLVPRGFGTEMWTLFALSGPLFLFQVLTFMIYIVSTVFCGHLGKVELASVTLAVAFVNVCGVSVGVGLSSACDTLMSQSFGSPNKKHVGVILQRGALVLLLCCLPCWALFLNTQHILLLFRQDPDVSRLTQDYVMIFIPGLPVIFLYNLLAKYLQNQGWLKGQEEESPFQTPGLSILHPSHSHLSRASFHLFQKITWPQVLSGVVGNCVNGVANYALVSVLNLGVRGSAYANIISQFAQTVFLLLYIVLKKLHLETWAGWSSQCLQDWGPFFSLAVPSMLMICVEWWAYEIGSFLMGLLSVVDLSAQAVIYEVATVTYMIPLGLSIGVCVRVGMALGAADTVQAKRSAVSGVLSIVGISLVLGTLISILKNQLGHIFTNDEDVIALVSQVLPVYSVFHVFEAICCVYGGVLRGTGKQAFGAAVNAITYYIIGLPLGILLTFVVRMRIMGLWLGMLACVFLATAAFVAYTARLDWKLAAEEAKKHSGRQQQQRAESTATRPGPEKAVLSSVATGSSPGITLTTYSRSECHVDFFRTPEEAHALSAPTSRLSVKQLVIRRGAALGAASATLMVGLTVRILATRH", "assay": "Inhibition of human MATE2K assessed as reduction in MATE2K-mediated metformin transport at 14900 uM relative to control"}, "Cytochrome P450 3A4": {"target": "Cytochrome P450 3A4 (Homo sapiens, UniProt P08684)", "sequence (P08684 whole entry)": "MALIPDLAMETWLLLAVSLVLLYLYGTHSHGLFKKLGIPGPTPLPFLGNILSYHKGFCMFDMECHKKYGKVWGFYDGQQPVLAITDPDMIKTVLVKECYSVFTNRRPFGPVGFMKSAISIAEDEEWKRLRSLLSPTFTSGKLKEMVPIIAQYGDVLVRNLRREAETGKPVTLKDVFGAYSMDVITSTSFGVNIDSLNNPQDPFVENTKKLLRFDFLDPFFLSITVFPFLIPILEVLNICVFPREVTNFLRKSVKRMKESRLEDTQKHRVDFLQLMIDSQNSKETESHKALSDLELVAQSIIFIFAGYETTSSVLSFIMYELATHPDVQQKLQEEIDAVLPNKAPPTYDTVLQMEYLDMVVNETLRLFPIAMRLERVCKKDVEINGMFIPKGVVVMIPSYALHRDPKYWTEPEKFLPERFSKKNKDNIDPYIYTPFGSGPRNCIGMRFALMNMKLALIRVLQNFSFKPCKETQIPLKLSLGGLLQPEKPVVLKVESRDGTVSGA", "assay": "Direct inhibition of CYP3A4 in human liver microsomes using testosterone as substrate", "format": "ADME"}, "[35]": {"assay": "Cmax in CD1 mouse at 30 mg/kg, iv", "format": "ADME, organism-based", "set-up": "route intravenous, dose 30 mg/kg", "conditions": "in vivo"}, "[36]": {"assay": "Reduction of propionyl-CoA in human hepatocytes derived from propionic acidemia patient pretreated for 30 mins followed by 13C-isoleucine addition and measured after 1 hr by MS/MS analysis", "format": "functional, cell-based", "conditions": "hepatocyte"}}, "note": "pEC50: −log10 of the molar value.", "data": [{"smiles": "CCC(C)(C)C(=O)O", "note": "[DIMEBUTIC ACID]", "values": [{"measurement": "Drug metabolism", "setting": "[1]", "result": "Metabolite_Detected"}, {"measurement": "AUC(0-inf)", "setting": "[2]", "result": 70.2, "unit": "µg·h/mL"}, {"measurement": "Drug metabolism", "setting": "[3]", "result": "Metabolite_Detected"}, {"measurement": "Drug metabolism", "setting": "[4]", "result": "Metabolite_Notdetected"}, {"measurement": "pEC50", "setting": "[5]", "result": 5.08}, {"measurement": "Drug metabolism", "setting": "[6]", "result": "Metabolite_Detected"}, {"measurement": "pEC50", "setting": "[7]", "result": 3.89}, {"measurement": "Tmax", "setting": "[8]", "result": 26.3, "unit": "min"}, {"measurement": "half-life", "setting": "[9]", "result": 65.4, "unit": "min"}, {"measurement": "Vd", "setting": "[10]", "result": 0.469, "unit": "L/kg"}, {"measurement": "Drug metabolism", "setting": "[11]", "result": "Metabolite_Detected"}, {"measurement": "PPB", "setting": "[12]", "result": 0, "unit": "%"}, {"measurement": "clearance", "setting": "[13]", "result": 17.3, "unit": "mL/min/kg"}, {"measurement": "half-life", "setting": "[14]", "result": 190, "unit": "min"}, {"measurement": "Cmax", "setting": "[15]", "result": 4270, "unit": "ng/mL"}, {"measurement": "AUC(0-inf)", "setting": "[16]", "result": 9.67, "unit": "µg·h/mL"}, {"measurement": "Activity", "setting": "[17]", "result": 54, "unit": "%"}, {"measurement": "pEC50", "setting": "[18]", "result": 4.85}, {"measurement": "pEC50", "setting": "[19]", "result": 5.32}, {"measurement": "Activity", "setting": "[20]", "result": -66.7, "unit": "%"}, {"measurement": "fraction unbound at 4 h, 40 µM", "setting": "[21]", "result": 0.55}, {"measurement": "Tmax", "setting": "[22]", "result": 25, "unit": "min"}, {"measurement": "Drug metabolism", "setting": "[23]", "result": "Metabolite_Detected"}, {"measurement": "Kp at 1 h", "setting": "[24]", "result": 4.6}, {"measurement": "pEC50", "setting": "[25]", "result": 4.94}, {"measurement": "Activity", "setting": "[26]", "result": -78.6, "unit": "%"}, {"measurement": "Activity", "setting": "[27]", "result": 20, "unit": "%"}, {"measurement": "remaining at 4 h, 50 µM", "setting": "[28]", "result": 88, "unit": "%"}, {"measurement": "pEC50", "setting": "[29]", "result": 5.70}, {"measurement": "solubility", "setting": "[30]", "result": "> 50", "unit": "mg/mL"}, {"measurement": "AUC(0-inf)", "setting": "[31]", "result": 1250, "unit": "µg·h/mL"}, {"measurement": "half-life", "setting": "[32]", "result": 35.4, "unit": "min"}, {"measurement": "AUC(0-inf)", "setting": "[33]", "result": 33.1, "unit": "µg·h/mL"}, {"measurement": "inhibition (INH)", "setting": "[34]", "result": "Not Active"}, {"measurement": "IC50", "setting": "Cytochrome P450 3A4", "result": "> 10000", "unit": "µM"}, {"measurement": "Cmax", "setting": "[35]", "result": 59400, "unit": "ng/mL"}, {"measurement": "pEC50", "setting": "[36]", "result": 6.03}]}]}
